Reference: article PMC13110267, “Fair and Square: Design, Synthesis and Biological Evaluations of Squaric Acid Derivatives as Novel HDAC8 Inhibitors” (Chemmedchem, 2026)

Assays:
Type in all cases: biochemical
HDAC11 = target: T1, HDAC11 (Homo sapiens, UniProt Q96DB2); experiment: HDAC11 fluorometric enzyme inhibition assay, purified enzyme; details: Table 2; purified enzyme ~1 nM
T1 construct: made in house
T1 sequence (Q96DB2 1-347): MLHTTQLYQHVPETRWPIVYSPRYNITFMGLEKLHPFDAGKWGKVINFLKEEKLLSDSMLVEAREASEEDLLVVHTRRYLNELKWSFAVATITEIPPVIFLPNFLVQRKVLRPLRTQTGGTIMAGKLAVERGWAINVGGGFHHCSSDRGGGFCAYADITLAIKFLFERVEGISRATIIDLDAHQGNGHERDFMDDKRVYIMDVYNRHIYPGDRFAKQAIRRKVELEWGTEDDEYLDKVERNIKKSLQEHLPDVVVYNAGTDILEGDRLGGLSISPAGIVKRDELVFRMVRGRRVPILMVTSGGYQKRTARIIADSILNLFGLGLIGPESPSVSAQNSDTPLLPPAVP
Experimental: (§1) Therefore, the first stage of biological evaluation focused on determining inhibitory concentration (IC50) values of the squaric acid derivatives against HDAC8 and HDAC4 using purified recombinant enzymes. Enzymatic inhibition was quantified using 10‐point dose–response assays, from which IC50 values were calculated (Table 1). HDAC8 and HDAC4 were employed at concentrations of 10 nM and 1 nM, respectively, while other zinc‐dependent HDAC isoenzymes were used at approximate concentrations of ∼1 nM, reflecting the purity of the commercially available preparations. […]
(§2) 1.3.1 HDAC Assay General Inform ation
(§3) The activity of HDAC1, HDAC4, HDAC6, HDAC8, and HDAC11 was determined using a fluorometric assay in black half-area 96-well microplates (Greiner Bio -One , Germany). HDAC1 (#50051) and HDAC 6 (#50006) were purchased from BPS Bioscience.
(§4) HDAC4, HDAC8 and HDAC11 were produced in house as previously described.7- 9 The enzymes were pre-incubated with serial dilutions of the compounds for 1 hour at 30 °C in either assay buffer (25 mM Tris-HCl, 75 mM KCl and 0.001% (v/v) Pluronic F -127, pH 8.0) or MAL buffer (137 m M NaCl, 50 mM Tris-HCl, 2.7 mM KCl, 1 mM MgCl₂, 0 .5 mg/ml bovine serum albumin (BSA), pH 8.0b) for HDAC11. The enzyme reaction was initiated by the addition of the following substrates: 20 µM Boc-L ys(T FA) -AMC for HDAC4 and HDAC8; 80 µM Boc-L ys(T FA) -AMC for HDAC11; and 50 µM Boc -Lys(Ac)-AMC for HDAC1 and HDAC6. After an incubation period of 60 minutes, the reaction was terminated by the addition of 1.7 µM 9,9,9-trifluoro-8-oxo-N -phenyl -nonanamide (SATFMK) for […]
(§5) HDAC6, and 1 µM 1,1-dimethyl -2-[5-(trifluoromethyl)pyrazin-2-yl]isoindoline -4-carbohydroxamic acid (FT895) for HDAC11. The deacetylated substrate was then cleaved into fluorescent 7-amino -4- methylcoumarin (AMC) by the addition of 0.42 mg/mL trypsin.
(§6) Measurements were performed using a PHERAstar FS fluorescence microplate reader (BMG LABTECH) with excitation at 360 nm and emission at 460 nm. The normalised enzyme activities were plotted against the respective ligand concentration and fitted with a four-parameter logistic function using GraphPad Prism 6 software.

HDAC4 = target: T2, HDAC4 (Homo sapiens, UniProt P56524); experiment: HDAC4 fluorometric enzyme inhibition assay, purified recombinant enzyme, 10-point dose-response; details: Table 1; purified recombinant HDAC4 1 nM; mean of three independent experiments; >35 µM = weak inhibitor
T2 construct: made in house
T2 sequence (P56524 whole entry): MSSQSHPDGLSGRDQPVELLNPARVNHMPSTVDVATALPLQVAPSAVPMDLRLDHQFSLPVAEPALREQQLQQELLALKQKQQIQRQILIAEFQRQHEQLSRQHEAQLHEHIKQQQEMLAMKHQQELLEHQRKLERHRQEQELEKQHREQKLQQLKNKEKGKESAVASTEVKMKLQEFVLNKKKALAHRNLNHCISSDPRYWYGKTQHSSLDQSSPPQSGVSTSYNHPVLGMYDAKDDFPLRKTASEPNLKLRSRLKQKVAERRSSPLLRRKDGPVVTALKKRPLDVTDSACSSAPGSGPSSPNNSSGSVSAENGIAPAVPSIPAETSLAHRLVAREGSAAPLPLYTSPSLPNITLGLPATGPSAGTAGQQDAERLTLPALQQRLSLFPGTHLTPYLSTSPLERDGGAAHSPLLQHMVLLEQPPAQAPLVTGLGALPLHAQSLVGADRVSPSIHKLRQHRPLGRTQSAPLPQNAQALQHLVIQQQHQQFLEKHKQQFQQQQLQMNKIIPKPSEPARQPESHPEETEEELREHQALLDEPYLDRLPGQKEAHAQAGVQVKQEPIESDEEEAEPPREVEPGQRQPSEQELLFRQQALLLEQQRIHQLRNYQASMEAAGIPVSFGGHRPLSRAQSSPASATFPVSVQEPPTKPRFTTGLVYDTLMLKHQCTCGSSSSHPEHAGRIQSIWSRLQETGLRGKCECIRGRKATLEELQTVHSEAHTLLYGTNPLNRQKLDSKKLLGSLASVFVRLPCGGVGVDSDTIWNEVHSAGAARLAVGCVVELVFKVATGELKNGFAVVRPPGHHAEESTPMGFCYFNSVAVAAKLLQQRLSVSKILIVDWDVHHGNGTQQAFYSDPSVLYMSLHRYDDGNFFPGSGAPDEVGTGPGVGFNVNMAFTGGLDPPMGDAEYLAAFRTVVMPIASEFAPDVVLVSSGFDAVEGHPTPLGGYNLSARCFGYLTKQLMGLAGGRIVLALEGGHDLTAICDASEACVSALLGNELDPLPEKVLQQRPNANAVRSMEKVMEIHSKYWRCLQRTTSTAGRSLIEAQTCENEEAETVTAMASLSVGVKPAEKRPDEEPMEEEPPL
Experimental: as §1, §2, §3, §4, §5, §6

HDAC1 = target: T3, HDAC1 (Homo sapiens, UniProt Q13547); experiment: HDAC1 fluorometric enzyme inhibition assay, purified enzyme; details: Table 2; purified enzyme ~1 nM
T3 construct: purchased BPS Bioscience 50051
T3 sequence (Q13547 whole entry): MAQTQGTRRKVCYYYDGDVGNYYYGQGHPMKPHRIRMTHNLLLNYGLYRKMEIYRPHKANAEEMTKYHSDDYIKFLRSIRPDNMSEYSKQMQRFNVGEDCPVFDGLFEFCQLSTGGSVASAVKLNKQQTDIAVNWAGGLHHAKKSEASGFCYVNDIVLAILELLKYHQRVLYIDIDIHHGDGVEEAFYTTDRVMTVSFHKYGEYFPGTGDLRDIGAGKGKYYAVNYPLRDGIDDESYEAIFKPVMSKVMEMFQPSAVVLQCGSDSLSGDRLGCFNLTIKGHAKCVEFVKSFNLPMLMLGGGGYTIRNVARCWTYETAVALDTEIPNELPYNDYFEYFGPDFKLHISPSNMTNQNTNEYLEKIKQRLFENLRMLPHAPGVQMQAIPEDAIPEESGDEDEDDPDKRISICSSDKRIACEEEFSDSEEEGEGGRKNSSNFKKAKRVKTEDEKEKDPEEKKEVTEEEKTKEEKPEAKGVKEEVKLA
Experimental: as §1, §2, §3, §4, §5, §6

HDAC8 = target: T4, HDAC8 (Homo sapiens, UniProt Q9BY41); experiment: HDAC8 fluorometric enzyme inhibition assay, purified recombinant enzyme, 10-point dose-response; details: for IC50: Table 1, purified recombinant HDAC8 10 nM, mean of three independent experiments, >35 µM = weak inhibitor; for IC50 (HDAC4)/IC50 (HDAC8): selectivity ratio HDAC8 over HDAC4
T4 construct: made in house
T4 sequence (Q9BY41 1-377): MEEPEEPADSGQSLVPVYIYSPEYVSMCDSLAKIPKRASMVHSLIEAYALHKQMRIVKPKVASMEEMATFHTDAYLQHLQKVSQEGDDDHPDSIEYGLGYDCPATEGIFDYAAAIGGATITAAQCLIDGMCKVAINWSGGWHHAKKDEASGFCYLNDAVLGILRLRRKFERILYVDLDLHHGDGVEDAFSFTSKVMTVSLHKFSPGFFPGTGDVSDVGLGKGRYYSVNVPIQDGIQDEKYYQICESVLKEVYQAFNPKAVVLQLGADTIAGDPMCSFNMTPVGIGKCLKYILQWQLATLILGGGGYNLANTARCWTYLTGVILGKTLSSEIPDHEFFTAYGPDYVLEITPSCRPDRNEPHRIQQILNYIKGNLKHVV
Experimental: as §1, §2, §3, §4, §5, §6

HDAC6 = target: T5, HDAC6 (Homo sapiens, UniProt Q9UBN7); experiment: HDAC6 fluorometric enzyme inhibition assay, purified enzyme; details: Table 2; purified enzyme ~1 nM
T5 construct: purchased BPS Bioscience 50006
T5 sequence (Q9UBN7 1-1215): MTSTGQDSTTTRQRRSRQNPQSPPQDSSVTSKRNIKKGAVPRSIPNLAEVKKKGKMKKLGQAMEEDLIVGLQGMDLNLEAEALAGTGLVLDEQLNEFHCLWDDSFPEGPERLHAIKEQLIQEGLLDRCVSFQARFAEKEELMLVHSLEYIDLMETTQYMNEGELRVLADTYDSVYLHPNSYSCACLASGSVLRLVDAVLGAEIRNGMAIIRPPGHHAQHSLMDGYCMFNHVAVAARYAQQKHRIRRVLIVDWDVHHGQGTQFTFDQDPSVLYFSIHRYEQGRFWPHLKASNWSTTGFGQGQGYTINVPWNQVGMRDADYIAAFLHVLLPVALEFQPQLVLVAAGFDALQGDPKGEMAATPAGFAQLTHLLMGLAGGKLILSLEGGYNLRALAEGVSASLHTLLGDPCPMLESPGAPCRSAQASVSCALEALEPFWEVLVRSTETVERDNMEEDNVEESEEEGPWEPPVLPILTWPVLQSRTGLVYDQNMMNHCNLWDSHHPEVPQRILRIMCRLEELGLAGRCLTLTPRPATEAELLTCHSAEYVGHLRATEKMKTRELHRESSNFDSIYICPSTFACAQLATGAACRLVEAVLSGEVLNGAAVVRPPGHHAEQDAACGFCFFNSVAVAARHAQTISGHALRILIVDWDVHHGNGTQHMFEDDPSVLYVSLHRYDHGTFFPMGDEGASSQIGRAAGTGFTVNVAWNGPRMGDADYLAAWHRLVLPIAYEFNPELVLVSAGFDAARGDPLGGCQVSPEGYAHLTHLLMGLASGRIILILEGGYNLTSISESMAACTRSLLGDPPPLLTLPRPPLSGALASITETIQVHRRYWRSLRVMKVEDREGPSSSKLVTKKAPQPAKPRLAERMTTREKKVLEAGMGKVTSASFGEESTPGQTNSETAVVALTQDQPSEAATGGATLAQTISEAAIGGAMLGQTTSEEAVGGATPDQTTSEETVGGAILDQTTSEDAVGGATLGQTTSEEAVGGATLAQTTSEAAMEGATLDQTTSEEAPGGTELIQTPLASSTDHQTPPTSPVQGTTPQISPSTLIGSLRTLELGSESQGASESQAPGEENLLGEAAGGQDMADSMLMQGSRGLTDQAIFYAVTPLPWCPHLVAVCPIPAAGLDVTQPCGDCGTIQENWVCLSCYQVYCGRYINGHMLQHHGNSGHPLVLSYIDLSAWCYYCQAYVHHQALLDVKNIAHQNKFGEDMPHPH
Experimental: as §1, §2, §3, §4, §5, §6

Row | IC50 (HDAC11) | IC50 (HDAC4) | IC50 (HDAC1) | IC50 (HDAC8) | IC50 (HDAC4)/IC50 (HDAC8) (HDAC8) | IC50 (HDAC6) | Structure (SMILES)
1 | 25 ± 8 µM | 8.5 ± 5.3 µM | 7 ± 2.7 µM | 1.2 ± 0.03 µM | 7.1 | 2.3 ± 1.6 µM | CCOc1c(Nc2ccc(F)cc2)c(=O)c1=O [Compound 9b]
2 | – | > 35 µM | – | > 35 µM | – | – | CCOc1c(N2CCN(C(=O)OC(C)(C)C)CC2)c(=O)c1=O [Compound 12j]
3 | – | > 35 µM | – | > 35 µM | – | – | CCOc1c(N2CCCc3ccc(Br)cc32)c(=O)c1=O [Compound 12k]
4 | – | 14 ± 2 µM | – | > 35 µM | – | – | O=c1c(Nc2ccccc2)c(Nc2ccccc2)c1=O [Compound 13a]
5 | > 35 µM | 4.6 ± 0.9 µM | 8.3 ± 3.6 µM | 1.8 ± 0.7 µM | 2.6 | 6.1 ± 3.5 µM | O=c1c(NCc2ccccc2)c(NCc2ccccc2)c1=O [Compound 13b]
6 | > 35 µM | 11 ± 4 µM | 8.1 ± 4.3 µM | 2 ± 1 µM | 5.5 | 2.9 ± 1.3 µM | O=c1c(Nc2ccc(Br)cc2)c(Nc2ccc(Br)cc2)c1=O [Compound 13c]
7 | – | > 35 µM | – | > 35 µM | – | – | CN(c1ccccc1)c1c(N(C)c2ccccc2)c(=O)c1=O [Compound 14a]
8 | > 35 µM | 14 ± 3 µM | 17 ± 16 µM | 1.3 ± 0.2 µM | 10.8 | 6.9 ± 2.5 µM | CN(Cc1ccccc1)c1c(N(C)Cc2ccccc2)c(=O)c1=O [Compound 14b]
9 | – | > 35 µM | – | > 35 µM | – | – | CN(c1ccc(Br)cc1)c1c(N(C)c2ccc(Br)cc2)c(=O)c1=O [Compound 14c]
10 | – | > 35 µM | – | > 35 µM | – | – | O=c1c(N(Cc2ccccc2)c2ccc(Br)cc2)c(N(Cc2ccccc2)c2ccc(Br)cc2)c1=O [Compound 15]
11 | – | > 35 µM | – | > 35 µM | – | – | O=c1c(N2CCOCC2)c(N2CCOCC2)c1=O [Compound 16a]
12 | – | > 35 µM | – | > 35 µM | – | – | O=c1c(N2CCCCC2)c(N2CCCCC2)c1=O [Compound 16b]
13 | – | > 35 µM | – | > 35 µM | – | – | CC(C)N1CCN(C(C)C)c2c1c(=O)c2=O [Compound 17a]
14 | – | > 35 µM | – | > 35 µM | – | – | CN1CCCN(C)c2c1c(=O)c2=O [Compound 17b]
